Source: publication PMC12090182, “Repurposing of the RIPK1-Selective Benzo[1,4]oxazepin-4-one Scaffold for the Development of a Type III LIMK1/2 Inhibitor” (ACS Chemical Biology, 2025)
Where two headings read alike, the source gives them in different places.

Tests used:
Assay type in all cases: cell-based
U2OS cells = conditions: human, 24 h, 1 µM
Procedure: (§1) To assess the influence on cell health, a high-content screening in living cells called the multiplex high-content assay, as described previously by Tjaden et al., was performed.[38] In brief, HEK293T (ATCC CRL-1573) and U2OS (ATCCHTB-96) were cultured in DMEM plus L-glutamine (high glucose) supplemented by 10% FBS (Gibco) and penicillin/streptomycin (Gibco). MRC-9 fibroblasts ([…]) were cultured in EMEM plus L-glutamine supplemented by 10% FBS (Gibco) and penicillin/streptomycin (Gibco). Cells were seeded at a density of 1250 cells per well in a 384-well plate in a culture medium (cell culture microplate, PS, f-bottom, μClear, 781091, Greiner), with a volume of 50 μL per well. All outer wells were filled with 100 μL of PBS buffer (Gibco). […] The cell shape and fluorescence were measured before treatment and 12, 24, and 48 h after compound treatment using the CQ1 high-content confocal microscope (Yokogawa, Musashino, Japan). […] The compounds were tested at 1 and 10 μM, respectively. Acquired images of the cells were processed using Yokogawa CellPathfinder software (v3.04.02.02). […] Results were normalized to cells exposed to 0.1% DMSO. All compounds were tested in biological duplicates, and SEM (standard error of mean) was calculated of biological duplicates.

HEK293T cells = conditions: human
Procedure: as §1

MRC-9 cells = assay: Multiplex high-content viability assessment; conditions: 1 µM, human fibroblast
Procedure: as §1

[1] = 0 h after treatment, biological replicate 2
[2] = 12 h after treatment, biological replicate 2
[3] = 24 h after treatment, biological replicate 2
[4] = 48 h after treatment, biological replicate 2

Q: Which results are given for `CCCCN(Cc1ccccc1)C(=O)c1ccc(S(=O)(=O)Nc2ccccc2)cc1` [TH257]?
A: Cell count per well (U2OS cells): 316; Population with membrane disruption (%) (HEK293T cells; 0 h, 1 µM): 0.00%; Population with membrane disruption (%) (HEK293T cells; 0 h, 10 µM): 0.00%; Population with membrane disruption (%) (HEK293T cells; 24 h, 10 µM): 0.00%; Cell count normalized to cells treated with DMSO control (MRC-9 cells; 0 h, biological replicate 1): 1.114; Cell count per well (MRC-9 cells; 0 h, biological replicate 1): 167; Population Fragmented Nuclei (%) (MRC-9 cells; 0 h, biological replicate 1): 8.59%; Population Healthy Nuclei (%) (MRC-9 cells; 0 h, biological replicate 1): 70.55%; Population Pyknosed Nuclei (%) (MRC-9 cells; 0 h, biological replicate 1): 20.86%; Population apoptotic cell (%) (MRC-9 cells; 0 h, biological replicate 1): 41.18%; Population cell that influence microtubule strucutre (%) (MRC-9 cells; 0 h, biological replicate 1): 18.26%; Population with increased mitochondrial mass (%) (MRC-9 cells; 0 h, biological replicate 1): 10.43%; Population with membrane disruption (%) (MRC-9 cells; 0 h, biological replicate 1): 0.87%; Cell count normalized to cells treated with DMSO control (MRC-9 cells; 12 h, biological replicate 1): 1.0759; Cell count per well (MRC-9 cells; 12 h, biological replicate 1): 162; Population Fragmented Nuclei (%) (MRC-9 cells; 12 h, biological replicate 1): 8.18%; Population Healthy Nuclei (%) (MRC-9 cells; 12 h, biological replicate 1): 74.84%; Population Pyknosed Nuclei (%) (MRC-9 cells; 12 h, biological replicate 1): 16.98%; Population apoptotic cell (%) (MRC-9 cells; 12 h, biological replicate 1): 37.04%; Population cell that influence microtubule strucutre (%) (MRC-9 cells; 12 h, biological replicate 1): 23.53%; Population with increased mitochondrial mass (%) (MRC-9 cells; 12 h, biological replicate 1): 5.88%; Population with membrane disruption (%) (MRC-9 cells; 12 h, biological replicate 1): 1.68%; Cell count normalized to cells treated with DMSO control (MRC-9 cells; 24 h, biological replicate 1): 1.074; Cell count per well (MRC-9 cells; 24 h, biological replicate 1): 162; Population Fragmented Nuclei (%) (MRC-9 cells; 24 h, biological replicate 1): 8.86%; Population Healthy Nuclei (%) (MRC-9 cells; 24 h, biological replicate 1): 76.58%; Population Pyknosed Nuclei (%) (MRC-9 cells; 24 h, biological replicate 1): 14.56%; Population apoptotic cell (%) (MRC-9 cells; 24 h, biological replicate 1): 43.48%; Population cell that influence microtubule strucutre (%) (MRC-9 cells; 24 h, biological replicate 1): 23.97%; Population with increased mitochondrial mass (%) (MRC-9 cells; 24 h, biological replicate 1): 5.79%; Population with membrane disruption (%) (MRC-9 cells; 24 h, biological replicate 1): 0.00%; Cell count normalized to cells treated with DMSO control (MRC-9 cells; 48 h, biological replicate 1): 1.094; Cell count per well (MRC-9 cells; 48 h, biological replicate 1): 166; Population Fragmented Nuclei (%) (MRC-9 cells; 48 h, biological replicate 1): 14.56%; Population Healthy Nuclei (%) (MRC-9 cells; 48 h, biological replicate 1): 76.58%; Population Pyknosed Nuclei (%) (MRC-9 cells; 48 h, biological replicate 1): 8.86%; Population apoptotic cell (%) (MRC-9 cells; 48 h, biological replicate 1): 64.29%; Population cell that influence microtubule strucutre (%) (MRC-9 cells; 48 h, biological replicate 1): 20.66%; Population with increased mitochondrial mass (%) (MRC-9 cells; 48 h, biological replicate 1): 0.83%; Population with membrane disruption (%) (MRC-9 cells; 48 h, biological replicate 1): 0.83%; Cell count normalized to cells treated with DMSO control (MRC-9 cells; [1]): 1.076; Cell count per well (MRC-9 cells; [1]): 192; Population Fragmented Nuclei (%) (MRC-9 cells; [1]): 13.26%; Population Healthy Nuclei (%) (MRC-9 cells; [1]): 56.35%; Population Pyknosed Nuclei (%) (MRC-9 cells; [1]): 30.39%; Population apoptotic cell (%) (MRC-9 cells; [1]): 34.55%; Population cell that influence microtubule strucutre (%) (MRC-9 cells; [1]): 45.10%; Population with increased mitochondrial mass (%) (MRC-9 cells; [1]): 3.92%; Population with membrane disruption (%) (MRC-9 cells; [1]): 7.84%; Cell count normalized to cells treated with DMSO control (MRC-9 cells; [2]): 1.0446; Cell count per well (MRC-9 cells; [2]): 174; Population Fragmented Nuclei (%) (MRC-9 cells; [2]): 19.08%; Population Healthy Nuclei (%) (MRC-9 cells; [2]): 51.97%; Population Pyknosed Nuclei (%) (MRC-9 cells; [2]): 28.95%; Population apoptotic cell (%) (MRC-9 cells; [2]): 25.00%; Population cell that influence microtubule strucutre (%) (MRC-9 cells; [2]): 64.56%; Population with increased mitochondrial mass (%) (MRC-9 cells; [2]): 13.92%; Population with membrane disruption (%) (MRC-9 cells; [2]): 7.59%; Cell count normalized to cells treated with DMSO control (MRC-9 cells; [3]): 0.9402; Cell count per well (MRC-9 cells; [3]): 155; Population Fragmented Nuclei (%) (MRC-9 cells; [3]): 16.78%; Population Healthy Nuclei (%) (MRC-9 cells; [3]): 57.34%; Population Pyknosed Nuclei (%) (MRC-9 cells; [3]): 25.87%; Population apoptotic cell (%) (MRC-9 cells; [3]): 35.14%; Population cell that influence microtubule strucutre (%) (MRC-9 cells; [3]): 70.73%; Population with increased mitochondrial mass (%) (MRC-9 cells; [3]): 4.88%; Population with membrane disruption (%) (MRC-9 cells; [3]): 13.41%; Cell count per well (MRC-9 cells; [4]): 166; Population Fragmented Nuclei (%) (MRC-9 cells; [4]): 32.10%; Population Healthy Nuclei (%) (MRC-9 cells; [4]): 49.38%; Population Pyknosed Nuclei (%) (MRC-9 cells; [4]): 18.52%; Population apoptotic cell (%) (MRC-9 cells; [4]): 50.00%; Population cell that influence microtubule strucutre (%) (MRC-9 cells; [4]): 76.25%
